# Experimental data published in article PMC12287757, “Exploring the inhibitory effect and mechanism of 3,4,5-trihydroxybiphenyl on α-glucosidase: an integrated experimental and computational approach” (Frontiers in Pharmacology, 2025).
# Target: α-glucosidase
# Assay: SPR (Biacore 8K, CM5 chip, immobilized enzyme); also p-NPG inhibition (IC50 […], Ki […], non-competitive, reversible) and CD
# Assay type: binding, Saccharomyces cerevisiae
structure (smiles),measurement,value
"Oc1cc(-c2ccccc2)cc(O)c1O [THB, 3,4,5-Trihydroxybiphenyl]",Kd,39.1 µM
